Assay results published in patent publication US9717709B2, “Substituted pyrazoles as heat shock transcription factor activators” (Duke University, priority 2010, dated 2017).

Columns and labels:
[1] = test system: Hsp90; experiment: competitive binding assay in vitro using biotinylated geldanamycin (GD-B)
Text: Many pharmacological inhibitors of Hsp90 such as geldanamycin and 17-AAG target the amino-terminal ATP binding pocket of Hsp90, thereby inhibiting its chaperone function. To test whether HSF1A has affinity for the Hsp90 ATP-binding pocket, we performed competitive binding assays in vitro using a biotinylated geldanamycin (GD-B) molecule. […] Because other small molecule inhibitors of Hsp90, including celastrol, novobiocin, and EGCG, are thought to bind Hsp90 at the carboxy-terminus Amolins, M and Blagg, B, Mini Rev Med Chem. 2009 9, 140-152, we ascertained whether HSF1A could bind to Hsp90 at a region outside of the ATPbinding pocket. To assay for HSF1A binding to Hsp90, we generated an HSF1A-biotin conjugate (HSF1A-B)) and assayed the ability of HSF1A-B to interact with Hsp90.

[2] = test system: mouse model of ALS; details: Kieran et al., Nature Medicine 2004; cited from earlier work

C=CCNC1=C2C[C@@H](C)C[C@H](OC)[C@H](O)[C@@H](C)/C=C(\C)[C@H](OC(N)=O)[C@@H](OC)/C=C\C=C(/C)C(=O)NC(=CC1=O)C2=O [17-AAG]
competition with GD-B for Hsp90 binding ([1]; at 1 mM and 10 mM): able to compete

CCc1ccc(S(=O)(=O)Nc2cc(-c3cccs3)nn2-c2ccccc2)cc1 [HSF1A]
competition with GD-B for Hsp90 binding ([1]; concentrations 100-fold higher than GD-B): unable to compete

[O-][n+]1cccc(/C(Cl)=N/OC[C@H](O)CN2CCCCC2)c1 [arimoclomal]
disease progression [2]: significantly delays disease progression
